Here are results for 3 molecules from US20070010484A1, “Method for treating or inhibiting the effects of injuries or diseases that result in neuronal degeneration and method for promoting neurogenesis” (YEDA RESEARCH AND DEVELOPMENT CO. LTD., priority 2003, published 2007).

Test [1] deals with PC12 cells. As to the kind of experiment: Neurite outgrowth assay in NGF-stimulated PC12 cells. It counts as cell-based, rat. Conditions: PC12 cells, NGF 10 ng/ml. Here is the method:
PC12 cell line: Rat pheochromocytoma (PC12) cells were cultured in DMEM containing 8% horse serum and either 8% FCS (culture medium) or 1% FCS (differentiation medium), and antibiotics. For assays of neurite outgrowth, the cells were plated (10^5 cell/well) on 13-mm glass coverslips, precoated with collagen (500 μg/ml) in 24-well plates. Neurite outgrowth assays: PC12 cells were cultured for 24-72 h while being stimulated with 10 ng/ml NGF, with or without CSPG-DSs. Cell morphology was visualized under a phase-contrast microscope and neurite lengths were measured using ImagePro. At least 200 cells were measured for each condition.

Test [2] concerns retinal ganglion cells (RGCs). As to the kind of experiment: Experimental autoimmune uveitis (EAU), RGC survival. Format: in vivo. Conditions: R16-immunized Lewis rats, i.p. on days 3, 6, 9, 12 and 17; counted 3 weeks after immunization; mean±SD. How it is done:
Induction of experimental autoimmune uveitis. To induce experimental autoimmune uveitis (EAU), Lewis rats were immunized with R16 (30 μg), a peptide derived from an ocular antigen IRBP emulsified in CFA containing 2.5 mg/ml M. tuberculosis. A total volume of 100 μl was injected s.c. into each rat at the root of the tail. Rats were then divided into three groups. On days 3, 6, 9, 12 and 17 after immunization the rats in the first group were injected i.p. with CSPG-DS (15 μg/rat), and rats in the second group were injected i.p. with methylprednisolone (MP. 30 mg/kg; Solu-Medrol, 125 mg/ml, Pharmacia & Upjohn, Puurs, Belgium). Rats in third group were left untreated.

Test [3] deals with PC12 cells. Nature of the test: LPA-induced neurite retraction in differentiated PC12 cells. Format: cell-based, rat. Conditions: NGF-differentiated PC12 cells, LPA 1 μg/ml, 20 min. How it is done:
PC12 cell line: Rat pheochromocytoma (PC12) cells were cultured in DMEM containing 8% horse serum and either 8% FCS (culture medium) or 1% FCS (differentiation medium), and antibiotics. For assays of neurite outgrowth, the cells were plated (10^5 cell/well) on 13-mm glass coverslips, precoated with collagen (500 μg/ml) in 24-well plates. Treatment of PC12 cells with lysophosphatidic acid (LPA). PC12 cells were placed and were differentiated for 3 days in the presence of 100 ng/ml NGF, in collagen-precoated culture dishes (Corning). […] The cells were then fixed with 4% paraformaldehyde (PFA) and analyzed by Nomarski microscopy. The longest neurite of each cell was measured and the results are expressed as their mean±SEM.

For the molecule `CC(=O)N[C@H]1C(O)O[C@H](CO)[C@H](O)[C@@H]1O[C@@H]1OC(C(=O)O)=C[C@H](O)[C@H]1O` (stereo partly drawn) [Di-0S, 2-acetamido-2-deoxy-3-O-(β-D-gluco-4-enepyranosyluronic acid)-D-galactose], the “effect on neurite outgrowth” value in the test on PC12 cells [1] is listed as “no effect”.

`C[C@H]1C[C@@H]2[C@H]([C@@H](O)C[C@@]3(C)[C@H]2CC[C@]3(O)C(=O)COC(=O)CCC(=O)[O-])[C@@]2(C)C=CC(=O)C=C12.[Na+]` [MP, reference compound]: the “RGC loss relative to normal rats” value in test [2] was determined as 59±1.6%.

Turning to “lysophosphatidic acid [LPA, reference compound]”, the “neurite collapse by LPA alone” value in the test on PC12 cells [3] was “induced neurite collapse”.
